tested on: up-regulation of ICAM-1 (CD54) by IFNγ in U937 human monocytic cells; assay: U937 IFNγ ICAM1 FACS Assay; type: cell-based; conditions: U937 cells stimulated with IFNγ; ICAM-1 expression by FACS; read-out: IC50, Example 44
Summary of the method: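 Readout was the geometric-mean APC anti-ICAM-1 signal by FACS on live U937 monocytic cells, with % live cells also recorded. Cells were exposed to compounds (8 points, 3-fold dilutions, duplicates) for 30 min at 37 °C before 18–24 h of IFNγ stimulation. EC50 values were computed from the dose curve.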

IC50 [µM]	Compound
1.82	Cc1cc(Nc2nc(Nc3ccc(F)c(S(N)(=O)=O)c3)ncc2F)cc(C)c1OCC#N [Compound I-35, N2-(3-Aminosulfonyl-4-fluoro)phenyl-N4-(4-cyanomethoxy-3,5-dimethyl)phenyl-5-fluoro-2,4-pyrimidinediamine]
1.36	CNS(=O)(=O)c1cc(Nc2ncc(F)c(Nc3ccc(Cn4ccnc4)cc3)n2)ccc1C [III-83, 5-Fluoro-N2-[3-(N-methylaminosulfony)-4-methylphenyl]-5-fluoro-N4-[4-(1-imidazolylmethyl)phenyl]-2,4-pyrimidinediamine]
0.427	Cc1cc(Nc2nc(Nc3cccc(S(N)(=O)=O)c3)ncc2F)ccc1OC(C)C#N (racemic) [Compound I-61, Racemic N2-(3-Aminosulfonyl)phenyl-N4-[4-(1-cyano)ethoxy-3-methyl]phenyl-5-fluoro-2,4-pyrimidinediamine]
0.14	Cc1cnc(Nc2ccc(S(N)(=O)=O)cc2)nc1Nc1ccc(OCC#N)cc1 [Compound I-57, N2-(4-Aminosulfonylphenyl)-N4-(4-cyanomethoxyphenyl-5)-methyl-2,4-pyrimidinediamine]
0.384	COc1cc(Nc2ncc(F)c(Nc3ccc(OC(C)C#N)cc3)n2)ccc1S(N)(=O)=O (racemic) [Compound I-70, Racemic N2-(4-Aminosulfonyl-3-methoxy)phenyl-N4-[4-(1-cyano)ethoxy]phenyl-5-fluoro-2,4-pyrimidinediamine]
1.05	Cc1cc(Nc2nc(Nc3ccc(F)c(S(N)(=O)=O)c3)ncc2F)ccc1OCC#N [Compound I-34, N2-(3-Aminosulfonyl-4-fluoro)phenyl-N4-(4-cyanomethoxy-3-methyl)phenyl-5-fluoro-2,4-pyrimidinediamine]
0.316	CC(C#N)Oc1ccc(Nc2nc(Nc3cccc(S(N)(=O)=O)c3)ncc2F)cc1 (racemic) [Compound I-65, Racemic N2-(3-Aminosulfonyl)phenyl-N4-[4-(1-cyano)ethoxy]phenyl-5-fluoro-2,4-pyrimidinediamine]
0.689	CC(C#N)Oc1ccc(Nc2nc(Nc3ccc(S(N)(=O)=O)cc3)ncc2F)cc1 (racemic) [Compound I-66, Racemic N2-(4-Aminosulfonyl)phenyl-N4-[4-(1-cyano)ethoxy]phenyl-5-fluoro-2,4-pyrimidinediamine]
0.771	Cc1ccc(Nc2ncc(F)c(Nc3ccc(OCC#N)c(Cl)c3)n2)cc1S(N)(=O)=O [Compound I-43, N2-(3-Aminosulfonyl-4-methylphenyl)-N4-(3-chloro-4-cyanomethoxypheny)-5-fluoro-2,4-pyrimidinediamine]
5.67	Cc1ccc(Nc2ncc(F)c(Nc3ccc(OCC(N)=O)cc3)n2)cc1S(N)(=O)=O [Compound I-94, N4-(4-Aminocarbonylmethoxy)phenyl-N2-(3-aminosulfonyl-4-methyl)phenyl-5-fluoro-2,4-pyrimidinediamine]
2.27	Cc1ccc(Nc2ncc(F)c(Nc3ccc(Cn4ccnc4)cc3)n2)cc1S(N)(=O)=O [III-82, N2-(3-Aminosulfonyl-4-methylphenyl)-5-fluoro-N4-[4-(1-imidazolylmethyl)phenyl]-2,4-pyrimidinediamine]
1.15	COc1cc(Nc2ncc(F)c(Nc3ccc(OC(C)C#N)c(C)c3)n2)ccc1S(N)(=O)=O (racemic) [Compound I-64, Racemic N2-(4-Aminosulfonyl-3-methoxy)phenyl-N4-[4-(1-cyano)ethoxy-3-methyl]phenyl-5-fluoro-2,4-pyrimidinediamine]
0.735	Cc1cc(Nc2nc(Nc3ccc(C)c(S(N)(=O)=O)c3)ncc2F)ccc1OC(C)C#N (racemic) [Compound I-62, Racemic N2-(3-Aminosulfonyl-4-methyl)phenyl-N4-[4-(1-cyano)ethoxy-3-methyl]phenyl-5-fluoro-2,4-pyrimidinediamine]
22.9	CNS(=O)(=O)c1cc(Nc2ncc(F)c(NCCc3ccc(-c4ccncc4)cc3)n2)ccc1C [III-78, 5-Fluoro-N2-[3-N-(methyl)aminosulfonyl-4-methylphenyl]-N4-[4-(4-pyridinyl)phenethyl]-2,4-pyrimidinediamine]
3.1	CC(C)(C#N)Oc1ccc(Nc2nc(Nc3ccc(S(N)(=O)=O)cc3)ncc2F)cc1 [Compound I-75, N2-(4-Aminosulfonyl)phenyl-N4-[4-(1-cyano-1-methyl)ethoxy]phenyl-5-fluoro-2,4-pyrimidinediamine]
0.239	Cc1ccc(Nc2ncc(F)c(Nc3ccc(OC(C)C#N)cc3)n2)cc1S(N)(=O)=O (racemic) [Compound I-67, Racemic N2-(3-Aminosulfonyl-4-methyl)phenyl-N4-[4-(1-cyano)ethoxy]phenyl-5-fluoro-2,4-pyrimidinediamine]

IC50 [µM]	Compound
1.12	CC(C)(C#N)Oc1ccc(Nc2nc(Nc3cccc(S(N)(=O)=O)c3)ncc2F)cc1 [Compound I-76, N2-(3-Aminosulfonyl)phenyl-N4-[4-(1-cyano-1-methyl)ethoxy]phenyl-5-fluoro-2,4-pyrimidinediamine]
15.6	Cc1cc(Nc2nc(Nc3cccc(S(N)(=O)=O)c3)ncc2F)ccc1OCC(N)=O [Compound I-92, N4-(4-Aminocarbonylmethoxy-3-methyl)phenyl-N2-(3-aminosulfonyl)phenyl-5-fluoro-2,4-pyrimidinediamine]
1.06	Cc1ccc(Nc2ncc(F)c(Nc3ccc(OC(C)(C)C#N)cc3)n2)cc1S(N)(=O)=O [Compound I-73, N2-(3-Aminosulfonyl-4-methyl)phenyl-N4-[4-(1-cyano-1-methyl)ethoxy]phenyl-5-fluoro-2,4-pyrimidinediamine]
6.3	Cc1cc(Nc2nc(Nc3ccc(C)c(S(N)(=O)=O)c3)ncc2F)ccc1OCC(N)=O [Compound I-95, N4-(4-Aminocarbonylmethoxy-3-methyl)phenyl-N2-(3-aminosulfonyl-4-methyl)phenyl-5-fluoro-2,4-pyrimidinediamine]
0.574	Cc1ccc(Nc2ncc(F)c(Nc3cc(C)c(OC(C)C#N)c(C)c3)n2)cc1S(N)(=O)=O (racemic) [Compound I-72, Racemic N2-(3-Aminosulfonyl-4-methyl)phenyl-N4-[4-(1-cyano)ethoxy-3,5-dimethyl]phenyl-5-fluoro-2,4-pyrimidinediamine]
0.913	CC(C#N)Oc1ccc(Nc2nc(Nc3ccc(F)c(S(N)(=O)=O)c3)ncc2F)cc1 (racemic) [Compound I-68, Racemic N2-(3-Aminosulfonyl-4-fluoro)phenyl-N4-[4-(1-cyano)ethoxy]phenyl-5-fluoro-2,4-pyrimidinediamine]
6.16	Cc1ccc(Nc2ncc(F)c(Nc3cccc(OCC(N)=O)c3)n2)cc1S(N)(=O)=O [Compound I-90, N4-(3-Aminocarbonylmethoxy)phenyl-N2-(3-aminosulfonyl-4-methyl)phenyl-5-fluoro-2,4-pyrimidinediamine]
1.77	CNS(=O)(=O)c1cc(Nc2ncc(F)c(Nc3ccc(Cc4ccncc4)cc3)n2)ccc1C [III-75, 5-Fluoro-N2-[3-(N-methylaminosulfony)-4-methylphenyl]-5-fluoro-N4-[4-(4-pyridinylmethyl)phenyl]-2,4-pyrimidinediamine]
5.74	Cc1ccc(Nc2ncc(F)c(Nc3ccc(OCC#N)cc3)n2)cc1S(=O)(=O)NC(=O)C(C)C [Compound I-37, N4-(4-Cyanomethyleneoxy)phenyl-5-fluoro-N2-(3-isobutyrylaminosulfonyl-4-methyl)phenyl-2,4-pyrimidinediamine]
11.1	Cc1cc(Nc2nc(Nc3cccc(S(N)(=O)=O)c3)ncc2F)cc(C)c1OCC(N)=O [Compound I-93, N4-(4-Aminocarbonylmethoxy-3,5-dimethyl)phenyl-N2-(3-aminosulfonyl)phenyl-5-fluoro-2,4-pyrimidinediamine]
3.43	NS(=O)(=O)c1cccc(Nc2ncc(F)c(Nc3ccc(Cn4ccnc4)cc3)n2)c1 [III-81, N2-(3-Aminosulfonylphenyl)-5-fluoro-N4-[4-(1-imidazolylmethyl)phenyl]-2,4-pyrimidinediamine]
1.76	CC(C)(C#N)Oc1ccc(Nc2nc(Nc3ccc(F)c(S(N)(=O)=O)c3)ncc2F)cc1 [Compound I-74, N2-(3-Aminosulfonyl-4-fluoro)phenyl-N4-[4-(1-cyano-1-methyl)ethoxy]phenyl-5-fluoro-2,4-pyrimidinediamine]
0.691	Cc1cc(Nc2nc(Nc3ccc(S(N)(=O)=O)cc3)ncc2F)cc(C)c1OC(C)C#N (racemic) [Compound I-63, Racemic N2-(4-Aminosulfonyl)phenyl-N4-[4-(1-cyano)ethoxy-3,5-dimethyl]phenyl-5-fluoro-2,4-pyrimidinediamine]
0.848	Cc1cc(Nc2nc(Nc3ccc(S(N)(=O)=O)cc3)ncc2F)ccc1OC(C)C#N (racemic) [Compound I-60, Racemic N2-(4-Aminosulfonyl)phenyl-N4-[4-(1-cyano)ethoxy-3-methyl]phenyl-5-fluoro-2,4-pyrimidinediamine]
0.356	Cc1ccc(Nc2ncc(F)c(Nc3ccc4c(c3)CCN4S(C)(=O)=O)n2)cc1S(N)(=O)=O [VII-61, N2-(3-Aminosulfonyl-4-methylphenyl)-5-fluoro-N4-[4-(1-methylsulfonyl)indolin-5-yl]-2,4-pyrimidinediamine]
0.328	Cc1cc(Nc2nc(Nc3cccc(S(N)(=O)=O)c3)ncc2F)cc(C)c1OC(C)C#N (racemic) [Compound I-71, Racemic N2-(3-Aminosulfonyl)phenyl-N4-[4-(1-cyano)ethoxy-3,5-dimethyl]phenyl-5-fluoro-2,4-pyrimidinediamine]

same assay, conditions: U937 cells stimulated with IFNγ; ICAM-1 expression by FACS; sodium Salt; read-out: IC50, Example 44

IC50 [µM]	Compound
5.1	CCC(=O)NS(=O)(=O)c1cccc(Nc2ncc(F)c(Nc3ccc(OCc4nc(C)no4)cc3)n2)c1 [Compound I-273]

From patent publication US11827628B2, “Compositions and methods for inhibition of the JAK pathway” (Rigel Pharmaceuticals, Inc., priority 2005, dated 2023)
